{"source": "ChEMBL document CHEMBL5465560", "about": "“Selectivity Literature for EUbOPEN Chemogenomic Library” (2024)", "key": {"[1]": {"target": "Melanocortin receptor 4 (Homo sapiens) (UniProt P32245)", "sequence (P32245 whole entry)": "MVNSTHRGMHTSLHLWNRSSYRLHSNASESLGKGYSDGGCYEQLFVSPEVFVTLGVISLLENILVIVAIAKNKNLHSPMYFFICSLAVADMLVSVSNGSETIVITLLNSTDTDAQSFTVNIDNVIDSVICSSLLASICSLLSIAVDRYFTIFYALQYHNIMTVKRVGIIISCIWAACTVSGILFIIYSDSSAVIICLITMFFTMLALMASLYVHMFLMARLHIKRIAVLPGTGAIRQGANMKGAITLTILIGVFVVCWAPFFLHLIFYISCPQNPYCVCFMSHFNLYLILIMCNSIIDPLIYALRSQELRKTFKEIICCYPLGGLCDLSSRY", "test": "Selectivity interaction (Eurofins CEREP Diversity Profile (receptors and ion channels)) EUB0000279b MC4R", "conditions": "at 10 µM"}, "[2]": {"target": "T1, Serine/threonine-protein kinase TNNI3K (Homo sapiens) (UniProt Q59H18)", "T1 sequence (whole entry)": "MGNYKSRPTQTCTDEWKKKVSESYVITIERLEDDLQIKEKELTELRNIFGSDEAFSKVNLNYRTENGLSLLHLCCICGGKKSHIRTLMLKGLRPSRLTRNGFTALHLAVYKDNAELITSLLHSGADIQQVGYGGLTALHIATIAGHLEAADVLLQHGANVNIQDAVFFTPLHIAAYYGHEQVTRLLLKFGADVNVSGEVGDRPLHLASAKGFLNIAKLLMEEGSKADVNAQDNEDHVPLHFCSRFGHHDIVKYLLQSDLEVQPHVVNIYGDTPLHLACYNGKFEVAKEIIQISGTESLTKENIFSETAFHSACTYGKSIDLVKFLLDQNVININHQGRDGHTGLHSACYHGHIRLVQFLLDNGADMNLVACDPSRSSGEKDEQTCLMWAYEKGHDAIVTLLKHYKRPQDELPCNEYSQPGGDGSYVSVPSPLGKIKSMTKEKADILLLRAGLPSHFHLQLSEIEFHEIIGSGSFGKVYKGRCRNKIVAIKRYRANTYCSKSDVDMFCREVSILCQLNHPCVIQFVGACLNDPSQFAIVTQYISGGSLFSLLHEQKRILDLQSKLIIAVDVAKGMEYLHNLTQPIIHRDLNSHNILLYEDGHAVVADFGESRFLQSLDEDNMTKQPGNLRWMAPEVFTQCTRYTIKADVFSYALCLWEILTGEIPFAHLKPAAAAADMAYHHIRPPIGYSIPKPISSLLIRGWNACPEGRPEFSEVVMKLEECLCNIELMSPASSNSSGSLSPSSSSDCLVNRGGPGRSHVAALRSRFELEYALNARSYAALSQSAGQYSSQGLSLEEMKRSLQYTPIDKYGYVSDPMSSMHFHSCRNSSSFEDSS", "test": "Selectivity interaction (Ambit KINOMEscan and KiNATiv profiling in Jurkat cells) EUB0000090b TNNI3K", "format": "cell-based", "conditions": "at 1 µM"}, "[3]": {"target": "SRSF protein kinase 1 (Homo sapiens, UniProt Q96SB4)", "sequence (Q96SB4 whole entry)": "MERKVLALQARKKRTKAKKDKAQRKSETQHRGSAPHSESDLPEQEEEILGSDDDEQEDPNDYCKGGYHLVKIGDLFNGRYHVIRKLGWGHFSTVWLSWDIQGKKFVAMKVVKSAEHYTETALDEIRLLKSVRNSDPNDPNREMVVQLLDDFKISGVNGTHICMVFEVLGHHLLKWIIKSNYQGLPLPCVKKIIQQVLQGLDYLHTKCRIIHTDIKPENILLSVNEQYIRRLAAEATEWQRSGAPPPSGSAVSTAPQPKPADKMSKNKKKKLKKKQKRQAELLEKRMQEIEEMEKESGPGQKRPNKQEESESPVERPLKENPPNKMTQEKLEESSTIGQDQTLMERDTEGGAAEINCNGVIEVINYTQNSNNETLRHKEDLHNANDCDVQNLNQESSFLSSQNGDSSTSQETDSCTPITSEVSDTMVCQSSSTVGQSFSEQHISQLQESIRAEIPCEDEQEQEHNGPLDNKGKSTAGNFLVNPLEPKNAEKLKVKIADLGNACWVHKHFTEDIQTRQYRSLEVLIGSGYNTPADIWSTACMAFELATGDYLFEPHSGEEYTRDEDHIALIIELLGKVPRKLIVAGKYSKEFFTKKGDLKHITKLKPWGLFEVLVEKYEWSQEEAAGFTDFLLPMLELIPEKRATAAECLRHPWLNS", "test": "Selectivity interaction (KinomeScan (DiscoverX)) EUB0000655a SRPK1", "conditions": "at 10 µM"}, "[4]": {"target": "T2, Serine/threonine-protein kinase DCLK2 (Homo sapiens) (UniProt Q8N568)", "T2 sequence (whole entry)": "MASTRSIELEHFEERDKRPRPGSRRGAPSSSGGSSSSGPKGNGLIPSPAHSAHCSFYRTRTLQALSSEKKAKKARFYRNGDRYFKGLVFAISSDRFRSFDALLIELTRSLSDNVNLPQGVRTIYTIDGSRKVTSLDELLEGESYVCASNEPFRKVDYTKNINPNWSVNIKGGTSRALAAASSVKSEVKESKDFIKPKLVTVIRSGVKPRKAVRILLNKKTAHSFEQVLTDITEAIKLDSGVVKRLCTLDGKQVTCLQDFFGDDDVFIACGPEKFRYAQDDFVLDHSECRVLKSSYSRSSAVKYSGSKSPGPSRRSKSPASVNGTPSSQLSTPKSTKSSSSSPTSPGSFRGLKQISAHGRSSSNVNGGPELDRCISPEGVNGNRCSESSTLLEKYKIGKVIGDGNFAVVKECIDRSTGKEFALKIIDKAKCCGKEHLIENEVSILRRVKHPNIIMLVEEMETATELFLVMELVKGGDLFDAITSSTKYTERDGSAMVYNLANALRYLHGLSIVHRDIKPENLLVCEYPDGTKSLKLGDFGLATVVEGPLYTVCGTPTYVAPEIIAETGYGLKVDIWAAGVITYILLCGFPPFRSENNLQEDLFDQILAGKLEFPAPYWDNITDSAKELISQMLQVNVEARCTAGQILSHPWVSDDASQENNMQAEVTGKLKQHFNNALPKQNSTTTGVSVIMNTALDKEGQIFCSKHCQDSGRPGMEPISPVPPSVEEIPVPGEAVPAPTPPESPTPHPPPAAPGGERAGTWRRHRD", "test": "Selectivity interaction (KinomeScan (DiscoverX)) EUB0000655a DCLK2", "conditions": "at 10 µM"}, "[5]": {"target": "T3, Calcium/calmodulin-dependent protein kinase type IV (Homo sapiens) (UniProt Q16566)", "T3 sequence (whole entry)": "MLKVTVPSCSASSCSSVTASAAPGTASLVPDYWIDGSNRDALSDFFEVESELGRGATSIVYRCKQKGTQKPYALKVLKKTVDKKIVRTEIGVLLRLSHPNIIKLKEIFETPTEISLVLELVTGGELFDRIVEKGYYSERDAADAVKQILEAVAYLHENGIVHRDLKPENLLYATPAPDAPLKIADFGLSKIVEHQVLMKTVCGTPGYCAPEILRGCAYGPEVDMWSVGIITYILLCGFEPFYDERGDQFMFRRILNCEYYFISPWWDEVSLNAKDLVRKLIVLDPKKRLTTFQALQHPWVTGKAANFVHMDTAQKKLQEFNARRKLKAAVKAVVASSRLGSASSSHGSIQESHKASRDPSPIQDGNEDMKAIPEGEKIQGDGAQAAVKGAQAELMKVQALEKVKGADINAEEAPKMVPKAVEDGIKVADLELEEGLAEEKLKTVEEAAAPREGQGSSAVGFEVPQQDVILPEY", "test": "Selectivity interaction (KinomeScan (DiscoverX)) EUB0001079a CAMK4", "conditions": "at 1 µM"}, "[6]": {"target": "Serine/threonine-protein kinase 35 (Homo sapiens) (UniProt Q8TDR2)", "sequence (Q8TDR2 whole entry)": "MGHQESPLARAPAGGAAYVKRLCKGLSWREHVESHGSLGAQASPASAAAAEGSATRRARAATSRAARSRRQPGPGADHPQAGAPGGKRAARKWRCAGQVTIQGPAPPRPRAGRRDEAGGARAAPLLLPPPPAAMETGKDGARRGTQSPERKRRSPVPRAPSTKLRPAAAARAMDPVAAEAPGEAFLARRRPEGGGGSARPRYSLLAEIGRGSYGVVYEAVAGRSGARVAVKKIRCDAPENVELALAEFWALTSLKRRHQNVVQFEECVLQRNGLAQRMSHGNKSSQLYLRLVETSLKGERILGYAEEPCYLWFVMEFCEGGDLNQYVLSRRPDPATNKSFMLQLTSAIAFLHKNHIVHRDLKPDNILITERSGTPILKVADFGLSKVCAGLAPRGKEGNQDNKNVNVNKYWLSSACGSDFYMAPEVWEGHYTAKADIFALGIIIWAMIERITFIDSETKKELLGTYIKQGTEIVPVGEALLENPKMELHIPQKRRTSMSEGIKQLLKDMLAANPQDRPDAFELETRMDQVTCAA", "test": "Selectivity interaction (KinomeScan (DiscoverX)) EUB0001619a STK35", "conditions": "at 1 µM"}, "[7]": {"target": "Serine/threonine-protein kinase N1 (Homo sapiens, UniProt Q16512)", "sequence (Q16512 2-942 limits assumed)": "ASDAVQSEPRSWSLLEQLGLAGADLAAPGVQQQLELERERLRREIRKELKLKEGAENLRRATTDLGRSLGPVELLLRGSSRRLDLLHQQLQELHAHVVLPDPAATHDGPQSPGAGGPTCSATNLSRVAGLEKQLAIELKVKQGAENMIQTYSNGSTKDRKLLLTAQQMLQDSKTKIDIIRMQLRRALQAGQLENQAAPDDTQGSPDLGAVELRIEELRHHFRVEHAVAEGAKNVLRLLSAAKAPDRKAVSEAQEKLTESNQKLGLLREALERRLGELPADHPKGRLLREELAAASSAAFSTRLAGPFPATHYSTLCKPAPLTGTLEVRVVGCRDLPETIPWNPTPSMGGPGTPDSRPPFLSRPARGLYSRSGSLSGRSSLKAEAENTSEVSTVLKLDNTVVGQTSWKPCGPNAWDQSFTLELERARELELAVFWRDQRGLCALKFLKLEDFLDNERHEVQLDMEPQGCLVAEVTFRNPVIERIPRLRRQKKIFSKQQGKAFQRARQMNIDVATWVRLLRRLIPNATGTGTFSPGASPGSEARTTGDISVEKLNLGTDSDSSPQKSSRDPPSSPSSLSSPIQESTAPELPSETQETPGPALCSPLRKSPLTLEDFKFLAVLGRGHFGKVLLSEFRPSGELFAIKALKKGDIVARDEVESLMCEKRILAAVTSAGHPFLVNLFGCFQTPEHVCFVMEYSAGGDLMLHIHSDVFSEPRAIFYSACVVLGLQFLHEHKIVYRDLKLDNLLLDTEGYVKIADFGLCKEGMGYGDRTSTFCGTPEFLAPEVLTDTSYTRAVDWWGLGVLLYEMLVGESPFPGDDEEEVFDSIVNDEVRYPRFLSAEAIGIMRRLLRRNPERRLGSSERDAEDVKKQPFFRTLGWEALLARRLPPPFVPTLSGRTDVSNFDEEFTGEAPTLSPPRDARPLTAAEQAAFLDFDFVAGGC", "test": "Selectivity interaction (KinomeScan (DiscoverX)) EUB0000229b PKN1", "conditions": "at 10 µM"}, "[8]": {"target": "Protein kinase C eta type (Homo sapiens) (UniProt P24723)", "sequence (P24723 whole entry)": "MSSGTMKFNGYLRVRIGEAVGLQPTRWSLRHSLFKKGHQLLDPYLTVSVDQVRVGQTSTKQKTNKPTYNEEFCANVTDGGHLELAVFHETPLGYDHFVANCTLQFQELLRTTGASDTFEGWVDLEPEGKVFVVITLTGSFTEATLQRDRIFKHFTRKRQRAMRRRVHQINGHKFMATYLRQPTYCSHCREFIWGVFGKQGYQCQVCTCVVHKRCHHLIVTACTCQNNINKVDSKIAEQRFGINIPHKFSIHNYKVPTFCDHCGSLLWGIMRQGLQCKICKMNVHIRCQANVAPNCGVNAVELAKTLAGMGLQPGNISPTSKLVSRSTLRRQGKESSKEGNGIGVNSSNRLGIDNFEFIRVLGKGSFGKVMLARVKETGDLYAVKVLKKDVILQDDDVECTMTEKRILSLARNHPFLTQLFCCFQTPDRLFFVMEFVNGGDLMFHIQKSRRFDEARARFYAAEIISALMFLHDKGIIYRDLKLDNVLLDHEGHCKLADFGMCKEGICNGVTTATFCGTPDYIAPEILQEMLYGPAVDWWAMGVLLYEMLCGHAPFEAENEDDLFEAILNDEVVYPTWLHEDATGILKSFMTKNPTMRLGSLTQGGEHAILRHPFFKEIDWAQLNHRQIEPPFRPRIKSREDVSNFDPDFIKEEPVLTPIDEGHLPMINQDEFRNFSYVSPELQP", "test": "Selectivity interaction (ProQinase) EUB0000171b PRKCH"}}, "data": [{"compound": "CC(=O)c1cc(-c2ccccc2OCC2CC2)c2ncccn12", "values": [{"measurement": "% of control", "setting": "[1]", "result": 90, "unit": "%"}]}, {"compound": "CN(C)C/C=C/C(=O)Nc1ccc(C(=O)N2CCCC(Nc3ncc(Cl)c(-c4c[nH]c5ccccc45)n3)C2)cc1", "note": "(centres undefined)", "values": [{"measurement": "% of control", "setting": "[2]", "result": 86, "unit": "%"}]}, {"compound": "CN(C)CCOc1ccc(-c2nc(-c3ccncc3)c(-c3ccc4c(c3)CC/C4=N\\O)[nH]2)cc1", "values": [{"measurement": "% of control", "setting": "[3]", "result": 86, "unit": "%"}, {"measurement": "% of control", "setting": "[4]", "result": 100, "unit": "%"}]}, {"compound": "Nc1cnc(N2CCc3cc(S(=O)(=O)Nc4c(F)cc(Cl)cc4F)cc(N4CCCC4=O)c32)nc1", "note": "[TP-020n]", "values": [{"measurement": "% of control", "setting": "[5]", "result": 96, "unit": "%"}]}, {"compound": "N#Cc1cccc(-c2c[nH]c3ncnc(N4CCOCC4)c23)c1", "values": [{"measurement": "% of control", "setting": "[6]", "result": 62, "unit": "%"}]}, {"compound": "COc1cc(N(C)c2ccnc3ccc(C(F)(F)F)cc23)cc(OC)c1OC", "values": [{"measurement": "% binding", "setting": "[7]", "result": 81, "unit": "%"}]}, {"compound": "C=CC(=O)Nc1cccc(C(=O)Nc2ccc(Nc3cc(-c4[nH]c(SC)nc4C)ccn3)cc2)c1", "values": [{"measurement": "% of control", "setting": "[8]; at 1 µM", "result": 91, "unit": "%"}, {"measurement": "% of control", "setting": "[8]; at 5 µM", "result": 78, "unit": "%"}]}]}
